# Experimental data taken from patent US11065311B2, “Retroviral vector with mini-promoter cassette” (DENOVO BIOPHARMA LLC, priority 2012, dated 2021).
# Test system: U87 cells
# Details: MTS
# Experimental: Cell were seeded at 3E3 cells in 96-well plates the day before. At 24 hour post cell seeding, PALA at 0.00975, 0.039, 0.156, 0.625, 2.5, 10, 40 and 160 uM were added to the culture for 5 consecutive days followed by an MTS assay to determine the cell viability. […] A range of cytosine concentrations (0.2, 1, 5 10 mM) in culture was also determined by performing the same experiment described above.
Molecule,"tolerance of cells to cytosine (0.2, 1, 5 10 mM cytosine in culture)","IC50 (read-out: ICH of PALA, naive U87, U87 with pAC3-yCD2 and with pAC3.S1-yCD2, 5 consecutive days) [µM]"
Nc1cc[nH]c(=O)n1 [cytosine],tolerate cytosine in all concentrations tested,–
N-(phosphonacetyl)-L-aspartate [PALA],–,8 to 30
